The text below walks through data of patent US20160039825A1 (BIOGEN MA INC., priority 2013, published 2016).

The assay concerns the target T1, Human ATX protein (Homo sapiens, UniProt Q13822).
T1 construct: made in house
As to the kind of experiment: Autotaxin (ATX) assay, FRET with FS-3 substrate. The format is biochemical. Conditions: upper bound bins (no greater than 100, 250 or 500 nM); FS-3 2 μM, ATX 1.0 μg/mL. The procedure, abridged:
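In-house human ATX (1.0 μg/mL final) was preincubated with compound for 30 min at room temperature in Tris buffer pH 7.4 with NaCl, KCl, CaCl2, MgCl2 and 1 mg/mL fatty acid-free BSA. FS-3 (2 μM final) was added and the plate shaken 2 h at room temperature in the dark. Fluorescence was read at ex 485/em 538 nm.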

Each structure is given as a SMILES string. pIC50: −log10 of the molar value.

What is called pIC50 is the negative decadic logarithm of the IC50, by convention in mol/L. A high value points to a small IC50. Consider `CCNC(=O)c1cc2n(n1)CCCN(C(=O)OCc1cc(Cl)cc(Cl)c1)C2` [Example 29, 3,5-Dichlorobenzyl 2-(ethylcarbamoyl)-7,8-dihydro-4H-pyrazolo[1,5-a][1,4]diazepine-5(6H)-carboxylate], for which the pIC50 is no less than 7.00.

`O=C(OCc1cc(C(F)(F)F)cc(C(F)(F)F)c1)N1CCCn2nc(CNC3COC3)cc2C1` [Example 511] showed a pIC50 of no less than 6.60.

On to `CC(O)c1cc2n(n1)CCCN(C(=O)OCc1cc(C(F)(F)F)cc(C(F)(F)F)c1)C2` (stereo not shown) [Example 146, 3,5-Bis(trifluoromethyl)benzyl 2-(1-hydroxyethyl)-7,8-dihydro-4H-pyrazolo[1,5-a][1,4]diazepine-5(6H)-carboxylate], for which the pIC50 was no less than 7.00. Regarding `CC1CNCC(C)N1C(=O)c1cc2n(n1)CCN(C(=O)OCc1cc(Cl)cc(C(F)(F)F)c1)C2` (stereo not shown) [Example 162, 3-chloro-5-(trifluoromethyl)benzyl 2-(2,6-dimethylpiperazine-1-carbonyl)-6,7-dihydropyrazolo[1,5-a]pyrazine-5(4H)-carboxylate], the pIC50 was no less than 7.00. The result for `CC1CCN(C(=O)c2cc3n(n2)CCN(C(=O)OCc2cc(C(F)(F)F)cc(C(F)(F)F)c2)C3)CC1` [Example 488] reads no less than 7.00; that for `O=C(OCc1cc(C(F)(F)F)cc(C(F)(F)F)c1)N1CCn2nc(C3CCNCC3)cc2C1` [Example 443], no less than 7.00. The value for `CC(=O)c1cc2n(n1)CCCN(C(=O)OCc1cc(C(F)(F)F)cc(C(F)(F)F)c1)C2` [Example 145, 3,5-Bis(trifluoromethyl)benzyl 2-acetyl-7,8-dihydro-4H-pyrazolo[1,5-a][1,4]diazepine-5(6H)-carboxylate] was no less than 7.00. The result for `CN(C)C(=O)c1cc2n(n1)CCN(C(=O)OCc1cc(C(F)(F)F)cc(C(F)(F)F)c1)C2` [Example 480] reads no less than 6.60; that for `CC1(C)C(NCc2cc3n(n2)CCCN(C(=O)OCc2cc(C(F)(F)F)cc(C(F)(F)F)c2)C3)CC1C(=O)O` (stereo not shown) [Example 287, 3-(((5-(((3,5-bis(trifluoromethyl)benzyl)oxy)carbonyl)-5,6,7,8-tetra-hydro-4H-pyrazolo[1,5-a][1,4]diazepin-2-yl)methyl)amino)-2,2-dimethylcyclo-butanecarboxylic acid], no less than 6.30. The compound `N#CC1CNCCN1C(=O)c1cc2n(n1)CCCN(C(=O)OCc1cc(Cl)cc(C(F)(F)F)c1)C2` (stereo not shown) [Example 196] gave a pIC50 of no less than 7.00. Regarding `O=C(OCc1cc(Cl)cc(C(F)(F)F)c1)N1CCCn2nc(C3CN4CCC[C@H]4CO3)cc2C1` (mixture of isomers) [Example 251, 3-Chloro-5-(trifluoromethyl)benzyl 2-((8aS)-hexahydro-1H-pyrrolo[2,1-c][1,4]oxazin-3-yl)-7,8-dihydro-4H-pyrazolo[1,5-a][1,4]diazepine-5(6H)-carboxylate], the pIC50 is no less than 7.00. The result for `O=C(OCc1cc(C(F)(F)F)cc(C(F)(F)F)c1)N1CCCn2nc(NC3CC4CCC(C3)N4)cc2C1` (stereo not shown) [Example 318] reads no less than 7.00; that for `CC1CNCC(C)N1C(=O)c1cc2n(n1)CCCN(C(=O)OCc1cc(C(F)(F)F)cc(C(F)(F)F)c1)C2` (stereo not shown) [Example 249], no less than 7.00; that for `O=C(O)c1nn2c(c1Cl)CN(C(=O)OCc1cc(C(F)(F)F)cc(C(F)(F)F)c1)CCC2` [Example 110, 5-(((3,5-Bis(trifluoromethyl)benzyl)oxy)carbonyl)-3-chloro-5,6,7,8-tetrahydro-4H-pyrazolo[1,5-a][1,4]diazepine-2-carboxylic acid], no less than 7.00. `O=C(O)C1CC2CCCC(C1)N2C(=O)c1cc2n(n1)CCN(C(=O)OCc1cc(F)cc(Cl)c1)C2` (stereo not shown) [Example 46, 9-(5-(((3-Chloro-5-fluorobenzyl)oxy)carbonyl)-4,5,6,7-tetrahydropyrazolo[1,5-a]pyrazine-2-carbonyl)-9-azabicyclo[3.3.1]nonane-3-carboxylic acid]: the pIC50 is no less than 7.00. The result for `CC1OCCN(CC(=O)c2cc3n(n2)CCCN(C(=O)OCc2cc(Cl)cc(C(F)(F)F)c2)C3)C1C` (stereo not shown) [Example 266] reads no less than 7.00; that for `CC1(C)CN(c2cc3n(n2)CCCN(C(=O)OCc2cc(C(F)(F)F)cc(C(F)(F)F)c2)C3)CCN1` [Example 340], no less than 7.00; that for `O=C(CCl)c1cc2n(n1)CCCN(C(=O)OCc1cc(Cl)cc(C(F)(F)F)c1)C2` [Example 250, 3-Chloro-5-(trifluoromethyl)benzyl 2-(2-chloroacetyl)-7,8-dihydro-4H-pyrazolo[1,5-a][1,4]diazepine-5(6H)-carboxylate], no less than 7.00. The result for `O=C(O)C1CC2CCCC(C1)N2C(=O)c1cc2n(n1)CCCN(C(=O)OCc1ccc(C(F)(F)F)cc1)C2` (stereo not shown) [Example 60] reads no less than 7.00; that for `CC(NC1COC1)c1cc2n(n1)CCCN(C(=O)OCc1cc(C(F)(F)F)cc(C(F)(F)F)c1)C2` (stereo not shown) [Example 509], no less than 6.60; that for `C[C@@H]1CNC[C@H](C)N1C(=O)c1cc2n(n1)CCCN(C(=O)OCc1cc(Cl)cc(C(F)(F)F)c1)C2` [Example 164], no less than 7.00. The result for `CNC1CN(C(=O)c2cc3n(n2)CCN(C(=O)OCc2cc(C(F)(F)F)cc(C(F)(F)F)c2)C3)C1` [Example 438] reads no less than 7.00.

As for `CC1CN(C(=O)c2cc3n(n2)CCN(C(=O)OCc2cc(C(F)(F)F)cc(C(F)(F)F)c2)C3)CC(C)N1` (stereo not shown) [Example 433], the pIC50 is no less than 7.00. The value for `O=C(OCc1cc(Cl)cc(Cl)c1)N1CCCn2nc(C(=O)N3CCNCC3)cc2C1` [Example 24, 3,5-Dichlorobenzyl 2-(piperazine-1-carbonyl)-7,8-dihydro-4H-pyrazolo[1,5-a][1,4]diazepine-5(6H)-carboxylate] was no less than 7.00; that for `O=C(OCc1cc(Cl)cc(C(F)(F)F)c1)N1CCCn2nc(C(=O)N3CC4CCNC4C3)cc2C1` (stereo not shown) [Example 167] was no less than 7.00. The result for `O=C(OCc1cc(C(F)(F)F)cc(C(F)(F)F)c1)N1CCn2nc(C3=CCNCC3)cc2C1` [Example 516] reads no less than 7.00; that for `CC(C)(C)OC(=O)N1CCN(C(=O)c2cc3n(n2)CCN(C(=O)OCc2cc(Cl)cc(C(F)(F)F)c2)C3)CC1` [Example 471], no less than 7.00. Consider `O=C(OCc1cc(C(F)(F)F)cc(C(F)(F)F)c1)N1CCn2nc(C(=O)N3CC(O)C3)cc2C1` [Example 483], for which the pIC50 was no less than 7.00. The value for `CC1(C)CNCCN1C(=O)c1cc2n(n1)CCN(C(=O)OCc1cc(C(F)(F)F)cc(C(F)(F)F)c1)C2` [Example 441] was no less than 7.00; that for `CCOC(=O)c1cn2c(n1)CN(C(=O)OCc1cc(C(F)(F)F)cc(C(F)(F)F)c1)CC2` [Example 3, 7-(3,5-Bis(trifluoromethyl)benzyl) 2-ethyl 5,6-dihydroimidazo[1,2-a]pyrazine-2,7(8H)-dicarboxylate] was no less than 7.00; that for `CC1CN(C(=O)OC(C)(C)C)CCN1C(=O)c1cc2n(n1)CCN(C(=O)OCc1cc(C(F)(F)F)cc(C(F)(F)F)c1)C2` (stereo not shown) [Example 464] was no less than 7.00.

Consider `O=C(OCc1cc(C(F)(F)F)cc(C(F)(F)F)c1)N1CCCn2nc(C3CCCNC3)cc2C1` (stereo not shown) [Example 380], for which the pIC50 is no less than 7.00.

`C[C@@H]1CCCN1CC(=O)c1cc2n(n1)CCCN(C(=O)OCc1cc(Cl)cc(C(F)(F)F)c1)C2` [Example 265]: the pIC50 was no less than 7.00. Turning to `CC(c1cc2n(n1)CCN(C(=O)OCc1cc(C(F)(F)F)cc(C(F)(F)F)c1)C2)N1CCCCC1` (stereo not shown) [Example 458], the pIC50 was no less than 7.00. The value for `CNC(=O)c1cc2n(n1)CCN(C(=O)OCc1cc(C(F)(F)F)cc(C(F)(F)F)c1)C2` [Example 482] was no less than 7.00. For `O=C(OCc1cc(C(F)(F)F)cc(C(F)(F)F)c1)N1CCCn2nc(NC3CC4CCCC(C3)N4)cc2C1` (stereo not shown) [Example 316], the pIC50 was no less than 7.00.

`CN1CCN(c2cc3n(n2)CCN(C(=O)OCc2cc(C(F)(F)F)cc(C(F)(F)F)c2)C3)CC1` [Example 393, 3,5-bis(Trifluoromethyl)benzyl 2-(4-methylpiperazin-1-yl)-6,7-dihydropyrazolo[1,5-a]pyrazine-5(4H)-carboxylate] had a negative logarithm of the IC50 (pIC50) of no less than 7.00. The result for `NC(=O)c1cc2n(n1)CCCN(C(=O)OCc1cc(Cl)cc(Cl)c1)C2` [Example 102, 3,5-Dichlorobenzyl 2-carbamoyl-7,8-dihydro-4H-pyrazolo[1,5-a][1,4]diazepine-5(6H)-carboxylate] reads no less than 7.00; that for `CN1C2CCC1CN(C(=O)c1cc3n(n1)CCCN(C(=O)OCc1cc(C(F)(F)F)cc(C(F)(F)F)c1)C3)C2` [Example 225], no less than 7.00; that for `O=C(OCc1cc(Cl)cc(C(F)(F)F)c1)N1CCCn2nc(C3CN4CCCC[C@@H]4CO3)cc2C1` (mixture of isomers) [Example 254, 3-chloro-5-(trifluoromethyl)benzyl 2-((9aR)-octahydropyrido[2,1-c][1,4]oxazin-3-yl)-7,8-dihydro-4H-pyrazolo[1,5-a][1,4]diazepine-5(6H)-carboxylate], no less than 7.00. Consider `CC(c1cc2n(n1)CCN(C(=O)OCc1cc(C(F)(F)F)cc(C(F)(F)F)c1)C2)N1CCC(C(=O)O)CC1` (stereo not shown) [Example 456], for which the pIC50 is no less than 6.60. Turning to `CNC1CN(C(=O)c2cc3n(n2)CCCN(C(=O)OCc2cc(Cl)cc(C(F)(F)F)c2)C3)C1` [Example 202], the pIC50 was no less than 7.00. The result for `O=C(OCc1cc(C(F)(F)F)cc(C(F)(F)F)c1)N1CCn2nc(-c3cn[nH]c3)cc2C1` [Example 500] reads no less than 7.00; that for `O=C(CN1CCOCC1)c1cc2n(n1)CCCN(C(=O)OCc1cc(Cl)cc(C(F)(F)F)c1)C2` [Example 271], no less than 7.00; that for `CN1CCN(C(=O)c2cc3n(n2)CCCN(C(=O)OCc2cc(Cl)cc(C(F)(F)F)c2)C3)C(C(=O)O)C1` (stereo not shown) [Example 184], no less than 7.00. As for `O=C(OCc1cc(Cl)cc(C(F)(F)F)c1)N1CCCn2nc(C(=O)N3CCNC4(CC4)C3)cc2C1` [Example 187], the pIC50 is no less than 7.00.
